Key:
C2C12 myoblasts = assay: Pathway inhibitors on MM-induced calcium release in C2C12 myoblasts; type: cell-based, mouse; settings: role: inhibitor; for Effect on MM-induced calcium signaling: SQ22536 100 μM, cAMPS-Rp 200 μM
Method: FIGS. 38A-38F—Calcium release in C2C12 myoblasts occurs by means of the IP3 pathway. Average normalized fluorescence intensity traces of C2C12 myoblasts before and after treatment with a) 10 μM U-73122 (PLC inhibitor), b) 100 μM gallein (GPCRβγ inhibitor), c) 1 μM FR900359 (GPCRα inhibitor), d) 200 μM cAMPS-Rp (cAMP antagonist, inhibits PKA activation), e) 100 μM SQ22536 (adenylyl cyclase inhibitor), and f) 1 μM nintedanib (RTK inhibitor).
It was determined that MMs activate the IP3 pathway by inhibiting key proteins along the pathway. If inhibition of a specific protein decreases the magnitude of the observed calcium responses, then it can be assumed that the targeted protein played an important role in propagating the calcium signaling pathway that was initiated by MMs. […] When both gallein and FR900359 are used simultaneously, a similar decrease of ~50% also occurs (FIG. 33). […] This may occur either through direct MM activation or indirectly through MM activation of a different signaling pathway. It is known that RTKs can also activate PLC (Bill and Vines, 2020).
The effect of cAMP pathway inhibition on the elicited calcium signaling responses was measured by using 100 μM SQ22536 to inhibit adenylyl cyclase (FIG. 38D) and 200 μM cAMPS-Rp (FIG. 38E), a cAMP antagonist that inhibits protein kinase A (PKA) activation. […] At this moment it cannot be concluded whether this effect is because MMs also activate the GPCRs associated with the cAMP pathway, or if inhibition of adenylyl cyclase and PKA naturally affects normal calcium signaling pathways, regardless of MM stimulation.

HEK293 cells [1] = assay: Pharmacological blocking of MM 1-induced calcium responses; type: cell-based; settings: role: inhibitor, MM 1 + light
Method: FIGS. 14A-14J—Mechanistic study of MM-induced ICW. (a) Schematic of possible mechanisms by which calcium can enter the cytoplasm. Prepared with Biorender.com. (b) Confocal microscope images of HEK293 cells treated with MM 1, MitoTracker Green, ER Tracker Red, and CellMask Deep Red. Scale bars are both 20 μm and apply to the images in the same row. (c-h) Calcium waves elicited by MM 1-treated cells (c) in calcium-free PBS, (d) in RR (1 μM), (e) in Gd^3+ (50 μM), (f) after treatment of cells with Th (1 μM), (g) in Ry (100 μM), (h) in XeC (25 μM), (i) in U-73 (10 μM), (j) after pre-treatment of cells with Cyto D (2 μM). The solid line represents the calcium profiles averaged from six independent cells. The shaded region represents the standard error of the mean (n=6). Stimuli were presented after 30 s of imaging in each case, and the time of stimulus presentation is indicated by the vertical cyan line. […] All stimuli were delivered with a pulse width of 250 ms to a circular area of diameter 5 μm at a power ranging from 3.2×10^2 W cm^−2 to 5.1×10^2 W cm^−2. For all plots, the cyan line indicates the time of stimulus presentation. Controls and experimental groups were imaged and stimulated on the same day using the same conditions and with the same batch of cells. Error bars in the bar graphs represent the standard deviation of the mean of n=3 experiments (at least 6 stimulated cells per experiment). Statistical analyses were performed using a one-tailed Welch's t-test. * P-value<0.05, ** P-value<0.01, *** P-value<0.001, **** P-value<0.0001.
Imaging was conducted in imaging extracellular buffer (iECB; 119 mM NaCl, 5 mM KCl, 10 mM HEPES, 2 mM CaCl2, 1 mM MgCl2 (pH 7.2); 320 mOsm). Imaging in calcium-free medium was conducted in phosphate-buffered saline. Cells were prepared for imaging by seeding a 35 mm Ibidi imaging dish with ~50,000 cells in 1 mL of DMEM, and grown at 37 °C, 5% CO2 for 2 days. Prior to imaging, cells were incubated with dyes and/or molecules resuspended in complete growth medium at the appropriate concentration (MM 1 (8 μM), MM 2 (8 μM), MM 3 (24 μM), MM 4 (8 μM), Fluo-4 (2 μM)). MM and Fluo-4 were loaded into cells for 45 min. Cells treated with thapsigargin were exposed for 30 min after MM and Fluo-4 loading. Cells treated with organelle-targeting dyes were exposed for 5 min after MM loading. Ruthenium red and Gd^3+ were included in the imaging medium during stimulation and were associated with cells for 10 min prior to imaging. At the end of incubation, this medium was replaced with the iECB. Unless otherwise specified, all experiments were replicated in triplicate.
Pharmacological Experiments: In pharmacological blocking experiments, cells were loaded with MM and Fluo-4 as previously described. Typical imaging experiments in previously described extracellular buffer were then conducted as a positive control. Then, the imaging buffer was replaced, and the cells were treated as required for each experiment. After a brief recovery period, the cells were imaged again, and six different cells were stimulated. Experiments in calcium-free imaging buffer used phosphate buffered saline. Thapsigargin (Th: 1 μM) and Cytochalasin D (Cyto D; 2 μM) were incubated with cells in complete growth medium for 1 h (Th) or 2 h (Cyto D) before imaging. Ruthenium red (RR; 1 μM), gadolinium (Gd; 50 μM), ryanodine (Ry; 100 μM), xestospongin C (XeC; […]), and U-73122 (U-73; 10 μM) were administered directly into the imaging medium. Cells were incubated in the medium for ~5 min prior to imaging. Traces presented are representative results across at least six cells from single experiments, while bar graphs represent the average results across at least three distinct experiments.

HEK293 cells [2] = assay: ROS scavengers on MM 1-induced calcium waves; type: cell-based; settings: melatonin 100 μM, thiourea 50 mM, L-ascorbic acid 2 mM; 1 h; MM 1, 4.5×10^2 W cm^−2
Method: Normalized fluorescence intensity traces of HEK293 cells treated with MM 1 and Fluo-4 and administered (a) melatonin (Mel; 100 μM), (b) thiourea (ThioU; 50 mM), and (c) L-ascorbic acid (Vit C; 2 mM). The shaded region indicates the standard error of n=6 stimulation attempts. Dark traces indicate positive controls collected prior to treatment. Stimulation was administered at 4.5×10^2 W cm^−2. Cells were incubated with chosen ROS scavengers for 1 h prior to stimulation.

C2C12 myotubes = assay: C2C12 myotube contraction (image subtraction); type: cell-based, mouse
Method: FIG. 35—Flow chart for the image subtraction process. First, the background is subtracted from the traces to account for drift during the course of the experiment (top row). After this, the traces are zeroed at the point of stimulation, and the area is calculated from the point of stimulation until the end of the experiment to yield the contraction magnitude. (bottom row).
FIGS. 40A-40D—MMs induce contraction in C2C12 myotubes, a) Confocal microscopy images of Fluo-4 and b) image subtraction of brightfield images to highlight calcium release and contractile motion in three stimulated myotubes (indicated by the red arrows) immediately before stimulation (t=0) for 1.5 s with 400-nm light, as well as 10 s and 120 s after stimulation. Scale bar=30 μm. c) Magnitude of contraction of MM 1 compared to DMSO, MM 2, MM 3, and cells treated with 10 μM U-73122. d) Mechanism of skeletal muscle cell contraction.
This method yielded images where the pixel intensity corresponds to movement over the course of the experiment (FIG. 40C), allowing us to easily visualize and quantify contraction.

[3] = cited from earlier work
[4] = UV-Vis absorbance of motors in DMSO; type: physicochemical
From the text: The UV-Vis spectrum of each motor was also acquired in DMSO (FIG. 37D) to ensure that the difference in absorbance at 400 nm was not the cause of larger or smaller responses.

## Nc1ncnc2c1ncn2[C@@H]1O[C@@H]2CO[P@@](O)(=S)O[C@H]2[C@H]1O [cAMPS-Rp]
C2C12 myoblasts
  Effect on MM-induced calcium signaling: small reduction in calcium signaling

## N.N.N.N.N.N.N.N.N.N.N.N.N.N.[Cl-].[Cl-].[Cl-].[Cl-].[Cl-].[Cl-].[O-2].[O-2].[Ru+3].[Ru+3].[Ru+4] [ruthenium red]
HEK293 cells [1]; ruthenium red 1 μM (10 μM in Table 2)
  Effect on MM-induced calcium responses: did not decrease the magnitude of MM-induced calcium responses

## C=C1[C@@H](C)[C@H]2[C@H](Cc3ccccc3)NC(=O)[C@]23[C@H](OC(C)=O)/C=C/[C@@](C)(O)C(=O)[C@@H](C)C/C=C/[C@H]3[C@@H]1O [cytochalasin D]
HEK293 cells [1]; cytochalasin D 2 μM, P=0.01762
  Effect on MM-induced calcium responses: inhibited

## C1CCC[C@H]2CCCN3CC[C@@H](CCCCCC[C@@H]4CCCN5CC[C@@H](CC1)O[C@@H]45)O[C@@H]23 [xestospongin C]
HEK293 cells [1]; XeC 25 μM (20 μM in Table 2), P=0.0167
  Effect on MM-induced calcium responses: significantly diminished the strength of cellular responses to MM

## C/C=C(/C)C(=O)O[C@H]1C(C)=C2[C@H]([C@@H]1OC(=O)CCCCCCC)[C@@](C)(OC(C)=O)C[C@H](OC(=O)CCC)[C@@]1(O)[C@H]2OC(=O)[C@@]1(C)O [thapsigargin]
HEK293 cells [1]; thapsigargin 1 μM, P=0.00257
  Effect on MM-induced calcium responses: did not show any measurable calcium flux upon light stimulation

## [Gd+3] [Gd^3+, gadolinium]
HEK293 cells [1]; Gd^3+ 50 μM
  Effect on MM-induced calcium responses: did not affect the observed responses

## O=C1O[C@H]([C@@H](O)CO)C(O)=C1O [L-ascorbic acid]
HEK293 cells [2]
  Effect of ROS scavenger on MM induced ICW: does not affect MM induced ICW

## FR900359
C2C12 myoblasts; FR900359 1 μM
  Reduction in observed calcium response: ~ 50%

## COC(=O)c1ccc2c(c1)NC(=O)/C2=C(\Nc1ccc(N(C)C(=O)CN2CCN(C)CC2)cc1)c1ccccc1 [nintedanib]
C2C12 myoblasts; nintedanib 1 μM (RTK inhibition)
  Effect on MM-induced calcium responses: no decrease in magnitude of the elicited calcium responses

## COc1ccc2c(c1)CC[C@@H]1[C@@H]2CC[C@]2(C)[C@@H](NCCCCCCN3C(=O)C=CC3=O)CC[C@@H]12 [U-73122, reference compound]
C2C12 myotubes; role: inhibitor, U73 (10 μM) with MM 1 + light
  Myotube contraction magnitude with PLC inhibitor: contraction magnitude equal to that of the DMSO control
C2C12 myoblasts; U-73122 10 μM
  Effect on MM-induced calcium responses: completely abolished

## NC(N)=S [thiourea]
HEK293 cells [2]
  Effect of ROS scavenger on MM induced ICW: does not affect MM induced ICW

## COc1ccc2[nH]cc(CCNC(C)=O)c2c1 [melatonin]
HEK293 cells [2]
  Effect of ROS scavenger on MM induced ICW: does not affect MM induced ICW

## CN(C)CCNc1ccc2c(c1)Sc1ccccc1C2=C1CCc2ccc3ccccc3c21 [MM 2 (fast, bidirectional)]
[3]
  Rotation rate: ~ 3 MHz
C2C12 myotubes; 400-nm light 1.5 s, image subtraction
  Myotube contraction: Strong cellular contraction did not occur
[4]
  Absorbance at 400 nm: nearly identical absorbances at 400 nm

## O=C1OC2(c3ccccc31)c1ccc(O)c(O)c1Oc1c2ccc(O)c1O [gallein]
C2C12 myoblasts; Mus musculus, C2C12, gallein 100 μM, read-out: Reduction in observed calcium response
  inhibition at 100 µM: ~50%

## Nc1ncnc2c1ncn2C1CCCO1 (stereo not shown) [SQ22536]
C2C12 myoblasts
  Effect on MM-induced calcium signaling: small reduction in calcium signaling

## ryanodine
HEK293 cells [1]; ryanodine 100 μM
  Effect on MM-induced calcium response amplitude: no effect on response amplitude

From patent US20260373497A1, “MOLECULAR MACHINES STIMULATE INTERCELLULAR CALCIUM WAVES AND CAUSE MUSCLE CONTRACTION” (William Marsh Rice University, priority 2022, published 2026)
